The test system of test [1] is Adult male Sprague-Dawley rats. The experiment in a line: Capsaicin-induced secondary mechanical hypersensitivity. Particulars: rat, about 30 mg/kg i.p., tactile allodynia 30 minutes after dosing, 180 minutes post-capsaicin. The test is classed as in vivo. An excerpt:
(§1) Adult male Sprague-Dawley rats (250-300 g body weight, Charles River Laboratories, Portage, Mich.) were used. Animal handling and experimental protocols were approved by the Institutional Animal Care and Use Committee (IACUC) at Abbott Laboratories. For all surgical procedures, animals were maintained under isoflurane anesthesia (4-5% to induce, 1-3% to maintain), and the incision sites were sterilized using a 10% povidone-iodine solution prior to and after surgeries.
Rats were allowed to acclimate to the study room for 1 h. […] Secondary mechanical hyperalgesia was measured at the heel away from the site of injection at 180 minutes following capsaicin (Joshi et al 2006, Neuroscience 143, 587-596). […]
Tactile (mechanical) allodynia was measured using calibrated von Frey filaments (Stoelting, Wood Dale, Ill.) as described in Chaplan, S. R., F. W. Bach, J. M. Pogrel, J. M. Chung and T. L. Yaksh, 1994, Quantitative assessment of tactile allodynia in the rat paw, J. Neurosci. […] A 50% withdrawal threshold was determined using an up-down procedure (Dixon, W. J., 1980, Efficient analysis of experimental observations, Ann. Rev. Pharmacol. Toxicol., 20, 441). […] Tactile allodynia thresholds were also assessed in several control groups, including naive, sham-operated, and saline infused animals as well as in the contralateral paws of nerve-injured rats. […]
Tactile allodynia was measured as described above.

Test [2] concerns the target T1, KCNQ 2/3 channels (HEK293 cells stably expressing human KCNQ2 and KCNQ3 subunits) (Homo sapiens, UniProt O43525+O43526).
T1 construct: expressed in transfected cells; host or cells: HEK293
The experiment in a line: KCNQ2/3 channel activation, thallium flux FLIPR assay with BTC-AM dye. In kind it is cell-based. Particulars: for Emax: HEK293, maximum response relative to the response produced by 10 μM retigabine (set at 100%), read-out: Max. %; for EC50: HEK293 cells expressing human KCNQ2 and KCNQ3, thallium flux, FLIPR. Summed up:
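HEK293 cells stably expressing human KCNQ2/KCNQ3 were loaded with BTC-AM (3 μg/mL, 2 h, RT) and preincubated with compound for 4 min in pH 7.3 gluconate buffer containing 0.1 mM ouabain. Flux was triggered by 6 mM TlNO3/10 mM K2SO4 and read for 3 min; EC50 came from summed responses over basal, with maximum relative to 10 μM retigabine (100%).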

For test [3], the system named is Adult male Sprague-Dawley rats. The experiment in a line: Spinal nerve ligation (SNL) model of neuropathic pain. The conditions noted are these: rat SNL model (L5/L6 ligation), about 30 mg/kg, tactile allodynia. The test is classed as in vivo.
From the text: as §1
Tactile (mechanical) allodynia was measured using calibrated von Frey filaments (Stoelting, Wood Dale, Ill.) as described in Chaplan, S. R., F. W. Bach, J. M. Pogrel, J. M. Chung and T. L. Yaksh, 1994, Quantitative assessment of tactile allodynia in the rat paw, J. Neurosci. Methods, 53, 55. Rats were placed into inverted individual plastic containers (20×12.5×20 cm) on top of a suspended wire mesh grid, and acclimated to the test chambers for 20 minutes. The von Frey filaments were presented perpendicularly to the plantar surface of the selected hind paw, and then held in this position for approximately 8 sec with enough force to cause a slight bend in the filament. Positive responses included an abrupt withdrawal of the hind paw from the stimulus, or flinching behavior immediately following removal of the stimulus. A 50% withdrawal threshold was determined using an up-down procedure (Dixon, W. J., 1980, Efficient analysis of experimental observations, Ann. Rev. Pharmacol. Toxicol., 20, 441). […] Tactile allodynia thresholds were also assessed in several control groups, including naive, sham-operated, and saline infused animals as well as in the contralateral paws of nerve-injured rats. To evaluate the anti-nociceptive effects, animals were administered vehicle or test compound and tactile allodynia was assessed 30 minutes after i.p. administration.
A model of spinal nerve ligation-induced (SNL model) neuropathic pain as originally described by Kim and Chung (Kim, S. H. and J. M. Chung, 1992, Pain 50, 355) was used to test a compound of the present application The left L5 and L6 spinal nerves of the rat were isolated adjacent to the vertebral column and tightly ligated with a 5-0 silk suture distal to the DRG, and care taken to avoid injury of the L4 spinal nerve. The same procedure was performed on Sham rats, but without nerve ligation. All animals were allowed to recover for at least one week and not more than three weeks prior to assessment of tactile allodynia.

The values below come from patent US8629143B2, “Potassium channel modulators” (AbbVie Inc., priority 2009, dated 2014).

As a reminder, the EC50 is the midpoint of the concentration-response curve.

With `O=C(CC12CC3CC(CC(C3)C1)C2)Nn1nc(-c2ccccc2)c2ccccc2c1=O` [Example 17, 2-(1-adamantyl)-N-(1-oxo-4-phenylphthalazin-2(1H)-yl)acetamide], the “change in paw withdrawal latency versus vehicle” value (from here on “change”) in test [1] was “statistically significant change”. Also, in test [2], the Emax came out at 205% and the 50% effective concentration (EC50) is less than 100 nM.

`O=C(C[C@H]1C[C@@H]2CC[C@H]1C2)Nn1nc(-c2ccc(C(F)(F)F)cc2)c2ccccc2c1=O` (racemic) [Example 150, (±)-2-(exo-bicyclo[2.2.1]hept-2-yl)-N-{1-oxo-4-[4-(trifluoromethyl)phenyl]phthalazin-2(1H)-yl}acetamide]: the “change” value in test [3] is listed as “statistically significant change”. In addition, in test [2], the Emax came out at 138% and the half-maximal effective concentration (EC50) is less than 100 nM.

For `CC1(C)[C@@H]2C[C@H]1[C@H](CC(=O)Nn1nc(-c3ccc(Cl)cc3)c3ccccc3c1=O)C(F)(F)C2` [Example 88, N-[4-(4-chlorophenyl)-1-oxophthalazin-2(1H)-yl]-2-[(1S,2S,5R)-3,3-difluoro-6,6-dimethylbicyclo[3.1.1]hept-2-yl]acetamide], in test [3], the “change” value is “statistically significant change”. In test [2], the Emax was 60% and the EC50 lay within 500 to 1000 nM.

In the case of `O=C(Cc1ccc(Cl)cc1)Nn1nc(-c2ccc(Br)cc2)c2ccccc2c1=O` [Example 3, N-[4-(4-bromophenyl)-1-oxophthalazin-2(1H)-yl]-2-(4-chlorophenyl)acetamide], the “change” value in test [1] is listed as “statistically significant change”. Also, in test [2], the Emax is 100% and the EC50 lay within 100 to 500 nM.

`O=C(Cc1ccc(Cl)cc1)Nn1nc(-c2ccc(Cl)cc2)c2ccccc2c1=O` [Example 117, 2-(4-chlorophenyl)-N-[4-(4-chlorophenyl)-1-oxophthalazin-2(1H)-yl]acetamide]: in test [3], the “change” value was “statistically significant change”. For the same compound, in test [2], the Emax came out at 120% and the concentration for a half-maximal effect (EC50) lay in the range of 100 to 500 nM.
